This is an account of results in ChEMBL document CHEMBL1201862, “PubChem BioAssay data set” (2004).

The structures appear in SMILES notation.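 Method: 48-hour compound exposure of cells in 96-well plates, five concentrations, linear interpolation of endpoints. GI50 marks 50% less growth.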 The source made the active and inactive calls. No stated cut-off is given here; in the data, active = GI50 up to about 1.1 µM and inactive = higher.

Test systems include M19-MEL; LXFL 529; DMS-114; DMS-273; XF498; SNB-78; DLD-1; KM-20L2; RXF 631.
Test in all cases: growth of human tumour cells (NCI), 48 h

On to `COc1ccc(OC)c2c1C(=O)C(Cl)=C(Cl)C2=O`, for which the GI50 in the assay with M19-MEL was 4.68 µM (inactive); with LXFL 529, 1.95 µM (inactive); in the assay with DMS-114 it was 2.16 µM (inactive); in the assay on DMS-273 it was 7.57 µM (inactive); with XF498, 1.61 µM (inactive); in the assay with SNB-78, 4.61 µM (inactive). Besides, the GI50 in the assay on DLD-1 was 3.84 µM (inactive); in the assay on KM-20L2 it was 10.5 µM (inactive).

Take `Oc1ncnc2c1sc(=S)n2-c1ccccc1`: the GI50 in the assay on M19-MEL, with LXFL 529, with DMS-114, with DMS-273, with XF498 and in the assay with SNB-78 was > 100 µM (inactive) in each case. Also, the GI50 with DLD-1 and in the assay on KM-20L2 was > 100 µM (inactive) throughout.

For the molecule `CN(C)CCCNc1ccc2ncn3c4ccccc4c(=O)c1c23`, the GI50 in the assay on RXF 631 is 4.7 µM (inactive); in the assay on M19-MEL, 12.1 µM (inactive); with LXFL 529, 8.55 µM (inactive); with DMS-114, 10.5 µM (inactive); in the assay on SNB-78, 14.2 µM (inactive); in the assay with DLD-1, 4.94 µM (inactive). In addition, the GI50 in the assay on KM-20L2 is 7.41 µM (inactive).

On to `CC(C)(C)/N=C\N1CCC(C(c2ccccc2)c2ccccc2)CC1`, for which the GI50 with M19-MEL was 37.2 µM (inactive); in the assay on DMS-114, 72.1 µM (inactive); with DMS-273 it was 65.3 µM (inactive); in the assay on XF498 it was 30.8 µM (inactive); in the assay on SNB-78, 64.6 µM (inactive); in the assay on DLD-1, > 100 µM (inactive). Besides, the GI50 in the assay with KM-20L2 is 14.9 µM (inactive).

With `Cc1ccc(/N=N/c2c(-c3ccccc3)nn(C(=O)CC(=O)Nc3ccc(Cl)cc3)c2-c2ccccc2)cc1`, the GI50 in the assay with RXF 631 was 59.4 µM (inactive); in the assay on LXFL 529, 27.9 µM (inactive); in the assay with DMS-114, 44.5 µM (inactive); in the assay with DMS-273, > 100 µM (inactive); with SNB-78, 79.6 µM (inactive); in the assay on DLD-1 it was 83.6 µM (inactive). In the assay with KM-20L2, the GI50 is 63.4 µM (inactive).

As for `O=C(c1ccccc1)c1cn(/N=C\c2ccccc2)c(=O)nc1-c1ccccc1`, the GI50 in the assay with M19-MEL, with LXFL 529, in the assay with DMS-114, in the assay on SNB-78, in the assay with DLD-1 and with KM-20L2 was > 100 µM (inactive) in each case.

With `CCn1c(SC(C)C(=O)c2c(C)n(C)n(-c3ccccc3)c2=O)nc2ccccc2c1=O` (centres undefined), the GI50 in the assay with M19-MEL, with LXFL 529, with DMS-114, in the assay with DMS-273, with SNB-78 and in the assay on DLD-1 was > 100 µM (inactive) throughout. Further, the GI50 with KM-20L2 is > 100 µM (inactive).

On to `CN(C)c1n/c(=N/c2ccc3c(c2)OCO3)ss1`, for which the GI50 in the assay on M19-MEL was > 100 µM (inactive); in the assay on LXFL 529 it was 35.3 µM (inactive); in the assay with DMS-114, 38.6 µM (inactive); in the assay with DMS-273, 66.5 µM (inactive); with XF498 it was 48.5 µM (inactive); with SNB-78, 44 µM (inactive). Further, the GI50 is 79.8 µM (inactive) with DLD-1 and 39.9 µM (inactive) in the assay on KM-20L2.

For `COC(=O)[C@H](C)[C@H]1CC[C@@](C)([C@H]2CC3C(C)(C)[C@H]4CCC(C)=C[C@H]4C[C@@]3(C)O2)OO1` (some centres undefined), the GI50 in the assay on M19-MEL was 13.2 µM (inactive); with LXFL 529, 2.03 µM (inactive); with DMS-114 it was 3.58 µM (inactive); in the assay with DMS-273, 12.6 µM (inactive); with XF498, 10 µM (inactive); in the assay on SNB-78, 10.8 µM (inactive). In addition, the GI50 in the assay on DLD-1 was 12 µM (inactive); with KM-20L2, 13.4 µM (inactive).

For the molecule `C=C1CCC2C(C)(CO)C(O)CCC2(C)C1C/C=C1/CCOC1=O` (centres undefined), the GI50 in the assay on M19-MEL, with LXFL 529, with DMS-273, in the assay on DLD-1 and in the assay on KM-20L2 was > 100 µM (inactive) in each case.

Turning to `NC(=O)C12CCC1C1CCCCC12N1CCOCC1` (centres undefined), the GI50 in the assay with RXF 631, with M19-MEL, in the assay with LXFL 529, in the assay with SNB-78, in the assay with DLD-1 and in the assay with KM-20L2 was > 100 µM (inactive) throughout.

As to `CC1(C)CC2(S(=O)(=O)c3ccccc3)ON1CC2S(=O)(=O)c1ccccc1` (centres undefined), the GI50 in the assay on M19-MEL was > 100 µM (inactive); in the assay with LXFL 529, 76.9 µM (inactive); with DMS-114, 67.1 µM (inactive); in the assay on DMS-273, 53.6 µM (inactive); in the assay on DLD-1 it was > 100 µM (inactive); with KM-20L2 it was > 100 µM (inactive).

On to `COCc1cc2c(s1)C(=O)C1=C(C2=O)C2(C=C(Br)C(=O)C(Br)=C2)CCN1`, for which the GI50 was 1.46 µM (inactive) with M19-MEL; 2.72 µM (inactive) in the assay with LXFL 529; 1.73 µM (inactive) with DMS-114; 2.85 µM (inactive) in the assay on DMS-273; 7.41 µM (inactive) in the assay with XF498; 7.59 µM (inactive) in the assay with SNB-78. Also, the results for the GI50 in the assay with DLD-1 and in the assay on KM-20L2 were 6.95 µM (inactive) and 0.184 µM (active), respectively.

With `CCCCCCCCCCCCCCC(C)CCC(=O)O` (centres undefined), the GI50 in the assay on M19-MEL was 47.2 µM (inactive); with XF498, 59.4 µM (inactive); with SNB-78 it was > 100 µM (inactive); with DLD-1, > 100 µM (inactive).

As to `C/C(=N\NC(=S)NNC(=S)N(C)c1ccccc1)c1ccccn1`, the GI50 with M19-MEL was 0.547 µM (active); with LXFL 529 it was 0.815 µM (active); in the assay on DMS-114, 0.399 µM (active); in the assay on DMS-273, 1.46 µM (inactive); with XF498, 14.1 µM (inactive); in the assay with SNB-78 it was 8.55 µM (inactive). Also, the GI50 with DLD-1 was 0.618 µM (active).

On to `COC(=O)C1Cc2c(n(C)c3ccccc23)C(c2ccccc2)N1` (centres undefined), for which the GI50 with RXF 631 is > 100 µM (inactive); with M19-MEL, 45.6 µM (inactive); with LXFL 529 it was 33.7 µM (inactive); in the assay with DMS-114 it was 21.8 µM (inactive); in the assay with DMS-273, 38.8 µM (inactive); in the assay on SNB-78, > 100 µM (inactive). In addition, the GI50 is > 10 µM (inactive) in the assay with DLD-1 and 57.8 µM (inactive) in the assay on KM-20L2.

With `CCCNc1ncnc2c1cnn2C`, the GI50 in the assay with M19-MEL, in the assay with DMS-114, in the assay on DMS-273, in the assay with XF498, with SNB-78 and in the assay with KM-20L2 was > 100 µM (inactive) each time.

As to `O=C1c2ccccc2C(=O)c2sc(Nc3cccc(Cl)c3)nc21`, the GI50 is 0.322 µM (active) with M19-MEL; 1.48 µM (inactive) with LXFL 529; 1.36 µM (inactive) with DMS-114; 1.87 µM (inactive) in the assay on DMS-273; 1.73 µM (inactive) in the assay with XF498; 1.94 µM (inactive) in the assay with DLD-1. Besides, the GI50 with KM-20L2 was 7.45 µM (inactive).

As for `O=c1c2ccccc2c(=O)c2c1cc(Cl)c1[nH]c3c([nH]c12)c(Cl)cc1c(=O)c2ccccc2c(=O)c13`, the GI50 with M19-MEL, with DMS-114, with DMS-273, with SNB-78, in the assay on DLD-1 and with KM-20L2 was > 100 µM (inactive) in each case.

In the case of `O/N=C1/C(=C/c2ccc3c(c2)OCO3)CCCC1C(NO)c1ccc2c(c1)OCO2` (centres undefined), the GI50 in the assay on M19-MEL was 24.8 µM (inactive); with LXFL 529, 20 µM (inactive); with DMS-114 it was 22.6 µM (inactive); with DMS-273, 21.8 µM (inactive); with XF498, 22.7 µM (inactive); with SNB-78, 31.3 µM (inactive). Further, the values for the GI50 with DLD-1 and in the assay on KM-20L2 were 28.4 µM (inactive) and 18.2 µM (inactive), respectively.

For the molecule `CCN(CC)CCNc1ccc2ncn3c4ccc(O)cc4c(=O)c1c23`, the GI50 with M19-MEL is 1.38 µM (inactive); in the assay with LXFL 529, 1.26 µM (inactive); with DMS-273, 0.0731 µM (active); in the assay on XF498 it was 0.173 µM (active); in the assay on SNB-78, 0.541 µM (active); in the assay on DLD-1, 0.544 µM (active). In addition, in the assay on KM-20L2, the GI50 was 1.23 µM (inactive).

Regarding `CC(=O)C(CN(C)Cc1ccccc1)C(c1ccccc1)c1c(O)c2ccccc2oc1=O` (centres undefined), the GI50 with M19-MEL, in the assay on LXFL 529, in the assay with DMS-114, with DMS-273, with SNB-78 and in the assay on DLD-1 was > 100 µM (inactive) each time. Moreover, the GI50 with KM-20L2 is 55.8 µM (inactive).

For the molecule `CC(=O)OC1CC2C(C)(C)OC(=O)CC(OC(C)=O)[C@]2(C)C2CCC3(C)C(=CCC3[C@H]3COC(=O)C3)[C@]12C` (some centres undefined), the GI50 is 80.2 µM (inactive) in the assay with M19-MEL; 51.8 µM (inactive) in the assay on LXFL 529; 70.1 µM (inactive) in the assay on DMS-114; 88.9 µM (inactive) in the assay on DMS-273; > 100 µM (inactive) in the assay on XF498; > 100 µM (inactive) in the assay on SNB-78. Moreover, the GI50 is 71.6 µM (inactive) in the assay on DLD-1 and > 100 µM (inactive) with KM-20L2.

In the case of `CC1C[C@H](C)CC(C(O)CC2CC(=O)N(Cc3ccccc3)C(=O)C2)C1O` (some centres undefined), the GI50 with M19-MEL, in the assay with LXFL 529, in the assay on DMS-114, in the assay with DMS-273, in the assay with SNB-78 and in the assay on DLD-1 was > 100 µM (inactive) throughout. In addition, the GI50 with KM-20L2 was > 100 µM (inactive).

With `O=C(O)CN(c1ccccc1)S(=O)(=O)c1cccc([N+](=O)[O-])c1`, the GI50 in the assay with M19-MEL, in the assay on LXFL 529, in the assay on DMS-273, in the assay on XF498, in the assay with DLD-1 and with KM-20L2 was > 100 µM (inactive) each time.

Take `C=C1CC[C@@H]2C(C)(C)CCC[C@@]2(C)[C@@H]1Cc1cc(O)ccc1O`: the GI50 was 3.56 µM (inactive) in the assay with M19-MEL; 2.11 µM (inactive) in the assay with LXFL 529; 1.89 µM (inactive) in the assay with DMS-114; 5.92 µM (inactive) in the assay on DMS-273; 1.93 µM (inactive) with SNB-78; 5.21 µM (inactive) in the assay on DLD-1. Besides, in the assay with KM-20L2, the GI50 is 17.3 µM (inactive).
